Measured values reported in patent US12538922B2, “Composition and methods for parasite control” (priority 2019, dated 2026).
Where “and” joins values, the source holds several entries; their conditions need not be identical. Identical values can stand only once. Counter-ions that a name gives are not always drawn. Like-named read-outs stand apart in the source and are kept apart here.

What was measured:
[1] = tested on: adult Aedes aegypti mosquitoes; assay: Mosquito repellency assay (landings and time on warm treated surface); assay type: in vivo; conditions: for Mean probing time [%, compared to control]: 100% = same time as on vehicle-treated surface; for Repellency, % reduction in landings vs vehicle control: repellency as percentage reduction of control, 100% = no landings
Procedure: The compound of the invention is mixed with ethanol to make a composition that can be applied to a surface and allowed to dry. After the surface is treated with the compounds of the invention and dried, it is heated to human body temperature, and the number of landings and the total time spent by the mosquitoes on the warm surface by adult Aedes aegypti mosquitoes is recorded automatically by machine vision to measure repellency of each compound.
Repellency (based on the number of individual landings on the warm surface) is expressed as a percentage reduction of the control, where the average number of mosquitoes landing on a warm surface treated only with the vehicle solvent is counted. 100% means no mosquitoes landed on the warm surface.
For mosquitoes that still landed on the warm surface, the time spent on the warm surface is also recorded and expressed as a percentage of the control, corresponding to the average time that mosquitoes spent on the same warm surface when treated only with the vehicle solvent. 100% mean that the mosquitoes spent the same time on the treated warm surface as on a warm surface treated only with the vehicle solvent.
Each compound/dose is tested in triplicate using a surface of 18.9 cm2 and 100 microliters of solution without the compound (the placebo) or with the compound dilution spread on the surface, and allowed to dry before the test. The average and standard error on triplicates is calculated. The control (using only vehicle solvent) is run with ethanol. The same population of mosquitoes is exposed first to the warm surface treated with the vehicle solvent, then to the surface treated with the compound. The concentration of the solution comprising the test compound was adjusted to ensure the treatment dosage of the compound is according to the final concentration per surface units area in the table.

[2] = tested on: R. sanguineus tick larvae; conditions: for Repellence Median (Q1-Q3) [%] / Knockdown Median (Q1-Q3) [%]: pure compound; for Repellence Median (Q1-Q3) [%]: median of replicates; for Knockdown Median (Q1-Q3) [%]: motility reduction over 9 min; for Knockdown Minimum effective concentration / Repellence Minimum effective concentration: smallest concentration with median activity above 50% significance limit
Procedure: FIG. 1 Schematic representation of the tick repellent test. 30-60 tick larvae are deposited in the non-treated area of a circular arena (8.96 cm^2) whereby one quadrant of the surface (2.25 cm^2) is treated. After 1 minute, the distribution of ticks in the treated and untreated areas is measured for a duration of 2 minutes. The repellent/deterrent effect is expressed in %: 100% means that ticks completely avoided the treated surface. Toxicity is measured in the same setup over a duration of 8 minutes and the mortality is expressed in % motility reduction between the beginning and the end of the 8 minutes. Dosages are expressed as a quantity (mg or molarity) per surface unit (m^2), as the compound or extract is deposited at the bottom of the well. Pure compounds: dose given in micromoles/m^2; Extracts: dose given in micrograms/m^2. Tests were run in triplicates.
The assay is used to evaluate the repellent/deterrent potential of a test compound or extract. The test includes a preliminary assessment of knockdown efficacy as a secondary endpoint. Knockdown can be defined as a state of intoxication and paralysis that usually precedes death (Wickham et al. (1974) Pesticide Science 5(5): 657-664). The test relies on the questing behavior of ticks that explore their habitat to find a suitable host hunting site and their propensity to avoid areas treated with repellent or irritating substances. Tick knockdown is expressed as a reduction in total motility over a defined period of time, and not by collecting and counting the number of dead and live ticks at the end of the exposure period.
Plant extracts or synthetic pure alkaloids diluted in methanol (extracts) or ethanol (alkaloids) were deposited on the bottom of wells in a six-well plate. Only one quadrant ([…]) of the bottom surface of each well was treated. The solvent was left to evaporate. The final concentration of the plant extracts was, therefore, expressed in mg/m^2, or in micromoles per square meter (μmol/m^2) for the synthetic alkaloids. Final concentrations applied for plant extracts were 893 (R. sanguineus adults only), 446, 141, 44.6, 14.1, and 4.46 mg/m^2, and 300, 100, 30, 10, and 3 μmol/m^2 for pure alkaloids. Approximately 50 R. sanguineus tick larvae, and exactly 5 R. sanguineus adults, or 5 I. ricinus nymphs were added to the untreated area of each well. Positive (DEET, commercial tick repellent) and negative (methanol or ethanol) controls were evaluated in parallel. Each concentration tested was run in three or more test replicates. After a 1-min incubation on a heating plate, the frequency of tick movement in the treated quadrant and in each of the untreated quadrants was recorded by machine vision. Tick movement on the untreated surface was computed as the median of movement on the three untreated quadrants. To estimate deterrence recordings were performed over a period of 2 min for R. sanguineus larvae, and for 3 minutes for R. sanguineus adults and I. ricinus nymphs, after the 1-min pre-exposure period. To assess knockdown effect, recording was extended to 9 min (starting at the 1-min pre-exposure period and lasting an additional 8 minutes).
Deterrence activity was calculated as follows: Percent deterrence=1−(movements on treated area/movements on untreated area)×100.
A difference of 50% between total movements recorded in the treated area versus movements recorded in the untreated area was considered significant.
The tick knockdown effect was calculated similarly: Percent knockdown=1−(movements at the end of the imaging period/movements at the beginning of the imaging period)×100.
A difference of 50% between total movements recorded during the 1 min pre-exposure and total movements measured at 9 min of recording was considered significant.

[3] = Table 5, N = 3 subset of Table 4
[4] = Table 5, N = 3 subset of Table 4, dose 3
[5] = Table 5, N = 3 subset of Table 4, dose 30
[6] = Table 5, N = 3 subset of Table 4, dose 300
[7] = concentration 100 μmol/m^2, dihydrochloride

SMILES	Mean probing time [%, compared to control] ([1]; dose 380 μmol/m^2) [%]	Repellency, % reduction in landings vs vehicle control ([1]; dose 380 μmol/m^2) [%]	MEC (μmol/m^2) [2, 3] [μmol/m^2]	% repellency [2, 5] [%]	% mortality [2, 6] [%]	% repellency [2, 6] [%]	Repellence Median (Q1-Q3) [%] ([2]; concentration 3 μmol/m^2)	Knockdown Median (Q1-Q3) [%] ([2]; concentration 3 μmol/m^2)	Knockdown Median (Q1-Q3) [%] ([2]; concentration 10 μmol/m^2)	Knockdown Median (Q1-Q3) [%] ([2]; concentration 30 μmol/m^2)	Repellence Median (Q1-Q3) [%] ([2]; concentration 300 μmol/m^2)	Knockdown Minimum effective concentration [2] [μmol/m^2]	Repellence Median (Q1-Q3) [%] ([2]; concentration 10 μmol/m^2)	Repellence Median (Q1-Q3) [%] ([2]; concentration 30 μmol/m^2)	Repellence Median (Q1-Q3) [%] ([2]; concentration 100 μmol/m^2)	Knockdown Median (Q1-Q3) [%] ([2]; concentration 100 μmol/m^2)	Knockdown Median (Q1-Q3) [%] ([2]; concentration 300 μmol/m^2)	also measured
C1=CC[C@H](c2cccnc2)NC1 (single isomer, unassigned) [R enantiomer base, R-(+) anatabine]	2.7	77.9	–	–	–	–	–	–	–	–	–	–	–	–	–	–	–	Mean probing time [%, compared to control] ([1]; dose 75 μmol/m^2): 29.0%; Repellency, % reduction in landings vs vehicle control ([1]; dose 75 μmol/m^2): 68.9%
C1=CC[C@@H](c2cccnc2)NC1 (single isomer, unassigned) [S enantiomer base, S-(−) anatabine]	1.6	90.0	–	–	–	–	–	–	–	–	–	–	–	–	–	–	–	Mean probing time [%, compared to control] ([1]; dose 75 μmol/m^2): 20.6%; Repellency, % reduction in landings vs vehicle control ([1]; dose 75 μmol/m^2): 86.5%
C1=CC[C@H](c2cccnc2)NC1 [(R)-anatabine dihydrochloride]	128.9	8.1	30	62	24	97	20.8	0	7.5	11.1	88.3%	100	–	–	–	–	–	Mean probing time [%, compared to control] ([1]; dose 760 μmol/m^2): 48.5%; Repellency, % reduction in landings vs vehicle control ([1]; dose 760 μmol/m^2): 42.9%; % repellency [2, 4]: 0%; Repellence Median (Q1-Q3) [%] ([2]; concentration 10 μmol/m^2, dihydrochloride): 34.4%; Repellence Median (Q1-Q3) [%] ([2]; concentration 10 μmol/m^2, listed as (R)-anatabine, dihydrochloride): 34%; Repellence Median (Q1-Q3) [%] ([2]; concentration 30 μmol/m^2, dihydrochloride): 62.0%; Repellence Median (Q1-Q3) [%] ([2]; concentration 30 μmol/m^2, listed as (R)-anatabine, dihydrochloride): 62%; Repellence Median (Q1-Q3) [%] [2, 7]: 84.3%; Repellence Median (Q1-Q3) [%] ([2]; concentration 100 μmol/m^2, listed as (R)-anatabine, dihydrochloride): 84%; Knockdown Median (Q1-Q3) [%] [2, 7]: 54.5%; Knockdown Median (Q1-Q3) [%] ([2]; concentration 300 μmol/m^2, dihydrochloride): 52.7%; Repellence Minimum effective concentration ([2]; dihydrochloride): 30 μmol/m^2
c1cncc([C@@H]2CCCCN2)c1 [(S)-anabasine]	–	–	>300	–	14	9	6.6	0	6.9	10.4	40.5%	>300	42.4%	46.9%	58	6.0%	9.5%	–
CN1CCC[C@H]1c1cccnc1 [(S)-nicotine]	–	–	–	–	–	–	–	3.4	1.3	26.4	–	300	–	–	–	37% and 37.1%	95% and 94.5%	–
c1cncc([C@@H]2CCCN2)c1 [(S)-nornicotine]	–	–	300	5	49	70	12.3	0.7	0.4	9.9	81% and 81.1%	>300	35.3%	27.9%	42.2	9%	18.7%	% mortality [2, 5]: 11%; Repellence Minimum effective concentration [2]: 300 μmol/m^2
CCN(CC)C(=O)c1cccc(C)c1 [DEET, N,N-Diethyl-m-toluamide]	–	–	–	26	–	100	31.1	0.7	10.0	2.4	100%	>300	57% and 57.3%	64% and 63.9%	75.7	5.2%	11.1%	% repellency [2, 4]: 27%; % mortality ([2]; in vivo): 11%; % repellency ([2]; positive control, dose 8.5 (mg/m^2)): 81.6%; Repellence Minimum effective concentration [2]: 10 μmol/m^2; MEC (Repellency) (mg/m^2) ([2]; tobacco extracts and DEET positive control): 8.5 mg/m^2
C1=CCC(c2cccnc2)NC1 (centres unmarked) [anatabine]	–	–	–	–	–	–	–	–	–	–	–	–	–	–	–	–	–	mosquito repellency, base form compared with HCl salt form ([1]; in vivo): significantly better mosquito repellent than in the HCl salt form; time spent by mosquitoes on treated surface, base form compared with HCl salt form ([1]; in vivo): much shorter time
